{"source": "paper PMC6934184", "about": "“Selective DNA-PKcs inhibition extends the therapeutic index of localized radiotherapy and chemotherapy” (The Journal of Clinical Investigation, 2019)", "target": "T1, PAK7 (KIAA1264) (Homo sapiens, UniProt Q9P286)", "T1 construct": "purchased Thermo Fisher Scientific (Life Technologies) SelectScreen", "T1 sequence (Q9P286 whole entry)": "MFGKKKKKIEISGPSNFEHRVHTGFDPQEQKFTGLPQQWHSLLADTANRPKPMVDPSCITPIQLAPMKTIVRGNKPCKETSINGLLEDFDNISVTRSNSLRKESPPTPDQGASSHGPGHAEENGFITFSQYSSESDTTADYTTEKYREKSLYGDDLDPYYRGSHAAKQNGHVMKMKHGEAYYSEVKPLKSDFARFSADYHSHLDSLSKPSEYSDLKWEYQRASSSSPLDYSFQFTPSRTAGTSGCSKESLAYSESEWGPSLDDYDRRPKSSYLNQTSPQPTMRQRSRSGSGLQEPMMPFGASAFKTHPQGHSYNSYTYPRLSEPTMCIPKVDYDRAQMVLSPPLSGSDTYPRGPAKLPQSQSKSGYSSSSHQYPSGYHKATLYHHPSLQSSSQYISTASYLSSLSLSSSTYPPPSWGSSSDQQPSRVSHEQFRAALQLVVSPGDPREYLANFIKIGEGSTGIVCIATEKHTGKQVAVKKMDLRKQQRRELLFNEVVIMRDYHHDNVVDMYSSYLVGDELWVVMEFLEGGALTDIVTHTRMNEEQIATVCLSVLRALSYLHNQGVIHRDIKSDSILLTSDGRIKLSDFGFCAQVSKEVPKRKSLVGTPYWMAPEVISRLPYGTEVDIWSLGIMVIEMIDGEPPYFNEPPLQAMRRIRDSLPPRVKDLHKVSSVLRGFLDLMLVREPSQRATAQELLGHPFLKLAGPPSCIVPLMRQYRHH", "test": "SelectScreen Z'LYTE", "assay_type": "biochemical", "procedure,_shortened": "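SelectScreen broad panel; activity (Z'LYTE, Adapta) plus binding formats. ATP: Km app for CSF1R Z'LYTE; 10 for CAMK1 Adapta. Readout = % per kinase.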", "data": [{"compound": "CN(C(=O)CN1CCOCC1)c1ccc2sc3c(-c4cccc5c(=O)cc(N6CC7CCC(C6)O7)oc45)cccc3c2c1", "note": "[NU5455]", "values": [{"measurement": "inhibition at 1 µM", "value": 5.7, "unit": "%"}]}]}
